# Measurements published in PubChem BioAssay AID1963854 (Molecular Pharmacology Branch, DTP, NCI, 2024).
# pIC50: −log10 of the molar value.
# Tested on: 186277-243-T-J2-PDC complex spheroid viability
# Assay: Anticancer human tumor 186277-243-T-J2-PDC patient-derived colon adenocarcinoma cell line growth inhibition [POLQ]
# Details: for pIC50: curve of first compound; for viability, T/C: stronger effect = lower value
# Experimental: Multicellular complex tumor spheroid response to Polymerase (POL) inhibitors (novobiocin, ART-558, RP6685) in combination with a variety of drugs and investigational agents in selected tumor cell lines
# The POL inhibitors (novobiocin, ART-558, and RP6685) were evaluated both individually and in combination with standard of care and investigational anticancer small molecules within a complex spheroid model of solid tumors. . Complex spheroids include a stromal component modeled by human endothelial cells (HUVEC) and fibroblasts modeled by human mesenchymal stem cells (MSCs). The concentration ranges selected for each drug and investigational agent were based upon clinically achievable concentrations if the clinical Cmax of the agent was known.
# Compounds. The drugs and investigational agents: novobiocin (NSC847541), ART-558 (NSC835418), RP-6685 (NSC848927), peposertib (NSC802822), ceralasertib (NSC780249), elimusertib (NSC800525), camonsertib (NSC841442), AZD-1390 (NSC803789), olaparib (NSC753686), talazoparib (NSC767125), rucaparib (NSC756644), sotorasib (NSC818433), MRTX-1133 (NSC836407), SN-38 (NSC673596), topotecan (NSC609699), epotoside (NSC141540), doxorubicin (NSC123127), gemcitabine (NSC613327), 5-fluorouracil (NSC19893), paclitaxel (NSC125973), vemurafenib (NSC761431), MSA-2 (NSC828583), SN-011 (NSC837082), adavosertib (NSC754352), prexasertib (NSC758257), carboplatin (NSC241240) and oxaliplatin (NSC266046), were obtained from the National Cancer Institute (NCI) Developmental Therapeutics Program Chemical Repository (21). The FDA-approved anticancer drug set is available from the Developmental Therapeutics Program at https://dtp.cancer.gov/organization/dscb/obtaining/. […] The stock solutions were prepared in dimethyl sulfoxide (DMSO, Sigma-Aldrich, St. Louis, MO, cat. D2650), except for the platinum compounds which were prepared in saline (Quality Biological, Gaithersburg, MD, cat. 114-055-101), at 800-fold the tested concentration and stored at -70 degrees C prior to their use. All drugs and investigational agents were tested over a range starting from a high concentration at or near the clinical Cmax and decreasing in half-log increments. If the clinical Cmax for an agent had not been determined, the highest concentration tested was 10 microM, except for SN-38, which was tested at a high concentration of 1 microM.
# Cell Culture. All cells were maintained in an incubator at 37 degrees C and 5% CO2 with 95% humidity. The PDC lines were cultured according to standard operating procedures established by the NCI PDMR (https://pdmr.cancer.gov). Table 3 of the manuscript, lists the cell lines along with the number of the three cell types plated to form the mct-spheroids and media for tumor cell growth. After thawing, all PDC lines, except 997537-175-T-J1-PDC and 415267-285-R-J2-PDC, were cultured in Matrigel-coated flasks prepared with a working solution of 1X Ham's F-12 nutrient mix, without supplementation (Thermo Fisher Scientific, cat. 11765054), 100 U/mL penicillin-streptomycin (Thermo Fisher Scientific, cat. 15140122), and 2.5% Matrigel (Corning Inc., Corning, NY, cat. 354248) for the first three passages. The two PDC lines 997537-175-T-J1-PDC and 415267-285-R-J2-PDC were cultured on uncoated flasks. The 857933-349-R-J2-PDC line was cultured in 6C/Colon 1B media containing advanced DMEM/F-12 (Thermo Fisher Scientific, cat. 12634028), 10 mM HEPES (Thermo Fisher Scientific, cat. 15630080), 1X GlutaMAX supplement (Thermo Fisher Scientific, cat. 35050061), 0.1 mg/mL primocin (InvivoGen, San Diego, CA, cat. ant-pm-2), 10% defined fetal bovine serum, heat inactivated (HyClone Laboratories Inc., Logan, UT, cat. SH30070.03HI), 50% L-WRN conditioned media (ATCC, cat. CRL-3276), 1.25 mM N-Acetyl-L-cysteine (Sigma-Aldrich, cat. A9165), 10 mM nicotinamide (Sigma-Aldrich, cat. N0636), 1X B-27 supplement (Thermo Fisher Scientific, cat. 17504044), 1X N-2 supplement (Thermo Fisher Scientific, cat. […]
# [1] = second compound 0.0316 µM, first compound 0.0316 µM
# [2] = second compound 0.0316 µM, first compound 0.1 µM
# [3] = second compound 0.0316 µM, first compound 0.316 µM
# [4] = second compound 0.0316 µM, first compound 1 µM
# [5] = second compound 0.0316 µM, first compound 3.16 µM
# [6] = second compound 0.0316 µM, first compound 10 µM
# [7] = second compound 0.1 µM, first compound 0.0316 µM
# [8] = second compound 0.1 µM, first compound 0.1 µM
# [9] = second compound 0.1 µM, first compound 0.316 µM
# [10] = second compound 0.1 µM, first compound 1 µM
# [11] = second compound 0.1 µM, first compound 3.16 µM
# [12] = second compound 0.1 µM, first compound 10 µM
# [13] = second compound 0.316 µM, first compound 0.0316 µM
# [14] = second compound 0.316 µM, first compound 0.1 µM
# [15] = second compound 0.316 µM, first compound 0.316 µM
# [16] = second compound 0.316 µM, first compound 1 µM
# [17] = second compound 0.316 µM, first compound 3.16 µM
# [18] = second compound 0.316 µM, first compound 10 µM
# [19] = second compound 1 µM, first compound 0.0316 µM
# [20] = second compound 1 µM, first compound 0.1 µM
# [21] = second compound 1 µM, first compound 0.316 µM
# [22] = second compound 1 µM, first compound 1 µM
# [23] = second compound 1 µM, first compound 3.16 µM
# [24] = second compound 1 µM, first compound 10 µM
# [25] = second compound 3.16 µM, first compound 0.0316 µM
# [26] = second compound 3.16 µM, first compound 0.1 µM
# [27] = second compound 3.16 µM, first compound 0.316 µM
# [28] = second compound 3.16 µM, first compound 1 µM
# [29] = second compound 3.16 µM, first compound 3.16 µM
# [30] = second compound 3.16 µM, first compound 10 µM
# [31] = second compound 10 µM, first compound 0.0316 µM
# [32] = second compound 10 µM, first compound 0.1 µM
# [33] = second compound 10 µM, first compound 0.316 µM
# [34] = second compound 10 µM, first compound 1 µM
# [35] = second compound 10 µM, first compound 3.16 µM
# [36] = second compound 10 µM, first compound 10 µM
# 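Note: spheroids exposed to compounds for seven days.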
# 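Throughout, for viability, T/C: 100% = DMSO vehicle control viability.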
smiles,measurement,setting,value
CC1COCCN1c1cc(-c2ccnn2C)c2ccnc(-c3ccn[nH]3)c2n1 (centres undefined) + COC1C(OC(N)=O)C(O)C(Oc2ccc3c(O)c(NC(=O)c4ccc(O)c(CC=C(C)C)c4)c(=O)oc3c2C)OC1(C)C,pIC50,second compound 0.0316 µM,7.37
same,pIC50,second compound 0.1 µM,7.34
same,pIC50,second compound 0.316 µM,7.34
same,pIC50,second compound 1 µM,7.32
same,pIC50,second compound 3.16 µM,7.37
same,pIC50,second compound 10 µM,7.29
same,"viability, T/C",[1],63.9%
same,"viability, T/C",[2],10.3%
same,"viability, T/C",[3],4.76%
same,"viability, T/C",[4],4.28%
same,"viability, T/C",[5],3.3%
same,"viability, T/C",[6],3.81%
same,"viability, T/C",[7],68.6%
same,"viability, T/C",[8],10.9%
same,"viability, T/C",[9],4.88%
same,"viability, T/C",[10],3.51%
same,"viability, T/C",[11],2.82%
same,"viability, T/C",[12],3.8%
same,"viability, T/C",[13],67.6%
same,"viability, T/C",[14],12.2%
same,"viability, T/C",[15],4.58%
same,"viability, T/C",[16],3.36%
same,"viability, T/C",[17],2.79%
same,"viability, T/C",[18],3.64%
same,"viability, T/C",[19],71%
same,"viability, T/C",[20],11.4%
same,"viability, T/C",[21],5.31%
same,"viability, T/C",[22],3.57%
same,"viability, T/C",[23],3.29%
same,"viability, T/C",[24],4.22%
same,"viability, T/C",[25],63.9%
same,"viability, T/C",[26],11.1%
same,"viability, T/C",[27],4.98%
same,"viability, T/C",[28],3.47%
same,"viability, T/C",[29],4.1%
same,"viability, T/C",[30],3.47%
same,"viability, T/C",[31],77.8%
same,"viability, T/C",[32],11.6%
same,"viability, T/C",[33],5.41%
same,"viability, T/C",[34],3.59%
same,"viability, T/C",[35],4.37%
same,"viability, T/C",[36],3.76%
COc1cc(C2c3cc4c(cc3C(OC3OC5COC(C)OC5C(O)C3O)C3COC(=O)C23)OCO4)cc(OC)c1O (centres undefined) + Nc1ccc(C#CCN(C(=O)Cc2ncc(C(F)(F)F)cc2C(F)(F)F)c2ccc(F)cc2)nn1,pIC50,second compound 0.0316 µM,5.34
same,pIC50,second compound 0.1 µM,5.40
same,pIC50,second compound 0.316 µM,5.50
same,pIC50,second compound 1 µM,5.43
same,pIC50,second compound 3.16 µM,5.44
same,pIC50,second compound 10 µM,5.58
same,"viability, T/C",[1],96.2%
same,"viability, T/C",[2],104%
same,"viability, T/C",[3],128%
same,"viability, T/C",[4],93.6%
same,"viability, T/C",[5],60.5%
same,"viability, T/C",[6],29.7%
same,"viability, T/C",[7],93.7%
same,"viability, T/C",[8],127%
same,"viability, T/C",[9],137%
same,"viability, T/C",[10],86.9%
same,"viability, T/C",[11],59.7%
same,"viability, T/C",[12],28.1%
same,"viability, T/C",[13],97.8%
same,"viability, T/C",[14],106%
same,"viability, T/C",[15],135%
same,"viability, T/C",[16],80%
same,"viability, T/C",[17],55.9%
same,"viability, T/C",[18],28.1%
same,"viability, T/C",[19],92.2%
same,"viability, T/C",[20],115%
same,"viability, T/C",[21],123%
same,"viability, T/C",[22],79%
same,"viability, T/C",[23],58.3%
same,"viability, T/C",[24],28.4%
same,"viability, T/C",[25],108%
same,"viability, T/C",[26],110%
same,"viability, T/C",[27],125%
same,"viability, T/C",[28],74.6%
same,"viability, T/C",[29],59.8%
same,"viability, T/C",[30],24.4%
same,"viability, T/C",[31],109%
same,"viability, T/C",[32],116%
same,"viability, T/C",[33],102%
same,"viability, T/C",[34],65.9%
same,"viability, T/C",[35],52.6%
same,"viability, T/C",[36],24.3%
